Experiment: mn = molality of the nth substance listed, in mol/kg
Conditions: 101 kPa, Liquid; for mass density: Pycnometric method; for electrical conductivity / speed of sound / viscosity: 313.15 K; for electrical conductivity: Frequency=0.001 MHz, Alternating current cell with electrodes; for speed of sound: Frequency=2 MHz

[Mg+2].[O-][Cl+3]([O-])([O-])[O-].[O-][Cl+3]([O-])([O-])[O-] [magnesium perchlorate] + CO
Conditions | mass density [kg/m3]
311.05 K, m1 = 0.0542 | 782.22
311.05 K, m1 = 0.0925 | 787.88
311.15 K, m1 = 0.6444 | 859.02
311.4 K, m1 = 0.4313 | 831.61
311.45 K, m1 = 1.059 | 911.67
311.55 K, m1 = 1.395 | 949.18
311.75 K, m1 = 0.1673 | 796.89
311.75 K, m1 = 2 | 999.04
312.55 K, m1 = 0.2872 | 811.13
312.6 K, m1 = 0.3228 | 815.21
313.25 K, m1 = 0.4313 | 829.89
313.25 K, m1 = 1.717 | 972.12
313.35 K, m1 = 0.1673 | 795.24
313.6 K, m1 = 0.0542 | 779.81
313.75 K, m1 = 1.395 | 947.21
314.05 K, m1 = 0.6444 | 856.37
314.15 K, m1 = 2 | 996.96
314.65 K, m1 = 1.059 | 908.74
315.1 K, m1 = 0.2872 | 808.66
315.2 K, m1 = 0.3228 | 812.71
315.8 K, m1 = 0.1673 | 792.81
315.85 K, m1 = 0.6444 | 854.66
315.9 K, m1 = 1.395 | 945.34
316 K, m1 = 0.4313 | 827.39
316.1 K, m1 = 0.0542 | 777.42
316.75 K, m1 = 1.717 | 969.14
317.85 K, m1 = 1.059 | 906.01
317.9 K, m1 = 2 | 993.97
318.5 K, m1 = 0.0542 | 774.98
318.5 K, m1 = 0.6444 | 851.96
318.65 K, m1 = 0.4313 | 824.78
319 K, m1 = 1.717 | 967.11
319.3 K, m1 = 1.395 | 942.34
320.05 K, m1 = 0.0542 | 773.35
320.15 K, m1 = 2 | 991.84
320.2 K, m1 = 0.6444 | 850.2
320.65 K, m1 = 1.059 | 903.14
321.15 K, m1 = 0.4313 | 822.18
322.3 K, m1 = 2 | 989.79
322.35 K, m1 = 1.717 | 964.07
322.45 K, m1 = 1.059 | 901.27
322.5 K, m1 = 1.395 | 939.42

Conditions | electrical conductivity [S/m] | speed of sound [m/s] | viscosity [mPa·s]
m1 = 0.0542 | 0.4141 | 1062.7 | 0.4735
m1 = 0.078 | 0.6138 | 1069.7 | –
m1 = 0.0925 | 0.6801 | 1072.7 | 0.4938
m1 = 0.1673 | 1.04 | 1082.2 | 0.5284
m1 = 0.2872 | 1.549 | 1098.9 | 0.5874
m1 = 0.3228 | 1.691 | 1102.5 | 0.6082
m1 = 0.4313 | 2.119 | 1115.5 | 0.6824
m1 = 0.6444 | 2.844 | 1141.6 | 0.7966
m1 = 1.059 | 3.813 | 1185.5 | 1.119
m1 = 1.395 | 4.297 | 1224.6 | 1.445
m1 = 1.717 | 4.592 | 1249.9 | 1.656
m1 = 2 | 4.75 | 1273.8 | 1.945

Source: the NIST ThermoML archive (doi:10.1021/je800463k)
